The text below walks through data of patent US20250188149A1, “ENHANCING ESTROGEN RECEPTOR ALPHA IN OSTEOARTHRITIS” (University of Pittsburgh - Of the Commonwealth System of …, priority 2022, published 2025).

For assay [1] the following is noted: patients with knee OA, intra-articular injection, phase II clinical trial, vs placebo; cited from earlier work.
Assay [2] concerns healthy human chondrocytes. As to the kind of experiment: DOX-induced DNA damage and senescence in healthy human chondrocytes. The settings on record: 100 nM DOX, 3 days, vs vehicle.

For `CC1(C)CCC(c2ccc(Cl)cc2)=C(CN2CCN(c3ccc(C(=O)NS(=O)(=O)c4ccc(N[C@H](CCN5CCOCC5)CSc5ccccc5)c(S(=O)(=O)C(F)(F)F)c4)cc3)CC2)C1` [ABT-263], the “reduction of joint pain and stiffness” value in assay [1] is “failed to outperform a placebo”.

In the case of `COc1cccc2c1C(=O)c1c(O)c3c(c(O)c1C2=O)C[C@@](O)(C(=O)CO)C[C@@H]3O[C@H]1C[C@H](N)[C@H](O)[C@H](C)O1` [DOX, doxorubicin], in assay [2], the “DNA damage (p21, γH2AX levels, comet assay)” value was “significant DNA damage”; the “IL-6 and IL-8 expression (real-time qPCR)” value was “upregulation”; the “NF-κB pathway (NFκB gene, p-p65)” value was “activated”; the “SA-β-Gal staining (senescent phenotype)” value is given as “increased”. Also, the “p16INK4A and p21 levels” value in assay [2] was “upregulation”. For the same compound, the ERα level result in assay [2] (western blot and IF) is on record as “significantly reduced”.
